Test results taken from patent US5684151A, “1-arylsulphonyl, arylcarbonyl and 1-arylphosphonyl-3-phenyl-1,4,5,6-tetrahydropyridazines” (priority 1995, dated 1997).
Like-named read-outs stand apart in the source and are kept apart here.

System: mouse (MC3T3-E1) and human (TE-85) osteoblast-line cells
Format: cell-based
Text: Compounds of the present invention have utility to treat osteoporosis through enhancement of bone calcification rather than traditional approaches which generally involve inhibition of bone degeneration or resorption. The compounds of the present invention have been evaluated as stimulators of proliferation of osteoblast cell and chick calivaria bone organ culture which is predictive of enhancement of bone mass and bone formation in vivo.
The action of select compounds to stimulate osteoblast growth was measured in culture by estimating the rate of DNA synthesis by the rate of ^3 H-thymidine incorporation into DNA. Only cells undergoing mitosis synthesized new DNA and thus only these cells incorporated the radiolabelled DNA-specific thymidine. The stimulation of the proliferation and differentiation of bone-forming cells, osteoblasts, was a prerequisite for an increase in bone formation and bone mass. The ability of agents to increase osteoblast proliferation and differentiation can be predicted by their action on cultured osteoblast-line cells in vitro. In this test, mouse (MC3T3-E1) and human (TE-85) osteoblast-line cells (American Type Tissue Culture Collection, #CRL 1543, Rockville, Md. cloned by Sudo et al., Koriyama, Japan) were cultured in vitro and the effect of various agents were tested on osteoblast cell proliferation. Cells were harvested from large culture flasks where they were allowed to grow to near confluency using trypsin. The cells were plated into 96 well culture plates, 1600 cells in 100 μL per well in Dulbencos Modified Eagle's Medium (DMEM) with 25 mM HEPES buffer, L-glutamine (584 mg/L); D-glucose (4.5 g/L) supplemented with fetal bovine sera (10%); penicillin (100 units/mL) and streptomycin (100 mcg/mL); sodium pyruvate (10 μM final concentration). The cells were allowed to plate overnight in DMEM containing 10% fetal bovine sera at 37° C. in an atmosphere of 5% CO2/95% air. Following their placement into 96 well culture plates all the osteoblast-line cells, either the MC3T3-E1 or the TE-85 cell lines, were allowed an additional 24 hours preincubation period in media containing only 0.1% fetal bovine sera.
Twenty hours later, a 20 μL aliquot of media containing 0.4 μCi of ^3 H-thymidine was added to each culture well. The cells were then incubated an additional 4 hours. The incubation was terminated by aspirating the media and washing with HBSS (Hank's Balanced Salt Solution). The cells were then treated with 100 μL of 0.5% trypsin and 5.3 mM EDTA for 30 minutes at room temperature. The cells were then aspirated onto glass fiber filter and washed with water. The radioactivity on the filters was quantified by liquid scintillation spectroscopy. The rate of ^3 H-thymidine incorporation into DNA was then utilized as an index of cell proliferation. The results are shown in Table 13 expressed as % times control where the control is 100%. […]

SMILES | Osteoblast Cell Proliferation, 3H-thymidine incorporation vs control (100%) (10^-7) [%] | Osteoblast Cell Proliferation, 3H-thymidine incorporation vs control (100%) (10^-8) [%] | Osteoblast Cell Proliferation, 3H-thymidine incorporation vs control (100%) (10^-9) [%] | Osteoblast Cell Proliferation, 3H-thymidine incorporation vs control (100%) (10^-10) [%] | Osteoblast Cell Proliferation, 3H-thymidine incorporation vs control (100%) (10^-6) [%]
CC1CC(c2ccccc2)=NN(C(=O)c2ccc(Cl)c(Cl)c2)C1 (racemic) [Compound 233, (R,S)-1-(3,4-dichlorobenzoyl)-5-methyl-3-phenyl-1,4,5,6-tetrahydropyridazine] | 130 | 132 | 130 | 138 | –
CC1CC(c2ccccc2)=NN(C(=O)c2ccc(F)c(F)c2)C1 (racemic) [Compound 235, (R,S)-1-(3,4-difluorobenzoyl)-5-methyl-3-phenyl-1,4,5,6-tetrahydropyridazine] | 86 | 87 | 92 | 88 | –
CC1CC(c2ccccc2)=NN(C(=S)c2ccc(Cl)c(Cl)c2)C1 (racemic) [Compound 248, (R,S)-1-(3,4-dichlorothiobenzoyl)-5-methyl-3-phenyl-1,4,5,6-tetrahydropyridazine] | 142 | 130 | 140 | 149 | –
O=S(=O)(c1cccc2ccccc12)N1CCCC(c2ccc(Cl)cc2)=N1 [Compound 44] | 107 | 105 | 95 | 87 | 86
CCCCCCc1ccc(S(=O)(=O)N2CCCC(c3ccc(Cl)c(Cl)c3)=N2)cc1 [Compound 121] | 123 | 122 | 120 | 181 | 120
O=S(=O)(/C=C/c1ccc(-c2ccccc2)cc1)N1CCCC(c2ccc(Cl)c(Cl)c2)=N1 [Compound 168] | 82 | 82 | 76 | 109 | 67
Cc1ccc(/C=C/S(=O)(=O)N2CCCC(c3ccc(Cl)c(Cl)c3)=N2)cc1 [Compound 169] | 131 | 133 | 134 | 195 | 128
O=S(=O)(/C=C/c1ccc2ccccc2c1)N1CCCC(c2ccc(Cl)c(Cl)c2)=N1 [Compound 171] | 110 | 121 | 118 | 129 | 72
O=S(=O)(/C=C/c1ccccc1)N1CCCC(c2ccc3c(c2)CCCC3)=N1 [Compound 176] | 94 | 109 | 113 | 109 | 59
O=C(c1ccc(F)c(Br)c1)N1CCCC(c2ccccc2)=N1 [Compound 229] | 104 | 86 | 99 | 114 | –
CCCCc1ccc(C2=NN(C(=O)c3ccc(Cl)c(Cl)c3)CCC2)cc1 [Compound 231] | 115 | 103 | 145 | 133 | –
O=C(c1cc(Cl)cc(Cl)c1)N1CCCC(c2ccccc2)=N1 [Compound 232] | 110 | 115 | 115 | 121 | –
CC1(C)CC(c2ccccc2)=NN(C(=O)c2ccc(Cl)c(Cl)c2)C1 [Compound 234] | 95 | 84 | 84 | 111 | –
Fc1ccc(C(=S)N2CCCC(c3ccc(Cl)c(Cl)c3)=N2)cc1F [Compound 236, 3-(3,4-Dichlorophenyl)-1-(3,4-difluorothiobenzoyl)-1,4,5,6-tetrahydropyridazine] | 109 | 102 | 106 | 115 | –
S=C(c1ccc(Cl)c(Cl)c1)N1CCCC(c2ccccc2)=N1 [Compound 237, 1-(3,4-dichlorothiobenzoyl)-3-phenyl-1,4,5,6-tetrahydropyridazine] | 113 | 113 | 110 | 119 | –
S=C(c1ccc(Cl)c(Cl)c1)N1CCCC(c2ccc(Cl)c(Cl)c2)=N1 [Compound 243] | 118 | 92 | 96 | 89 | –
S=C(c1cc(Cl)cc(Cl)c1)N1CCCC(c2ccc(Cl)c(Cl)c2)=N1 [Compound 244] | 119 | 134 | 129 | 144 | –
S=C(c1cc(Cl)cc(Cl)c1)N1CCCC(c2ccccc2)=N1 [Compound 247] | 118 | 122 | 122 | 129 | –
CCCCc1ccc(C2=NN(P(=O)(OC)c3ccccc3)CCC2)cc1 (centres unmarked) [Compound 251] | 104 | 111 | 91 | 111 | 109
COP(=O)(c1ccccc1)N1CCCC(c2ccc(F)cc2)=N1 (centres unmarked) [Compound 258] | 107 | 108 | 107 | 98 | 107
CCOP(=O)(c1ccccc1)N1CCCC(c2ccc(F)cc2)=N1 (centres unmarked) [Compound 259] | 96 | 102 | 121 | 106 | 116
COP(=O)(c1ccccc1)N1CCCC(c2ccc(Br)cc2)=N1 (centres unmarked) [Compound 260] | 115 | 105 | 99 | 90 | 100
